Measured values published in ChEMBL document CHEMBL1240334, “Molecular basis of cyclin-CDK-CKI regulation by reversible binding of an inositol pyrophosphate” (Nat Chem Biol, 2008).
Active and inactive are the calls of the source. The calls are words filed in the database; no cut-off is given here.

Experiments:
[1] = target: T1, Pho80/Pho85/Pho81 complex (Saccharomyces cerevisiae S288c) (UniProt P17157+P17442+P20052); test: Inhibition of Saccharomyces cerevisiae Pho80-Pho85-Pho81-MD catalyzed phosphorylation of Pho4 F29I distal-site mutant assessed as increase in substrate concentration; type: protein-complex assay
[2] = target: T1, Pho80/Pho85/Pho81 complex (Saccharomyces cerevisiae S288c); test: Displacement of myo-inositol hexakisphosphate from Pho80-Pho85-Pho81-MD complex in Saccharomyces cerevisiae at 0.2 uM 30 mins by electrophoretic mobility shift assay; type: protein-complex assay
[3] = target: T2, Phosphate system positive regulatory protein PHO81 (Saccharomyces cerevisiae S288c, UniProt P17442); test: Inhibition of Saccharomyces cerevisiae Pho81-MD-dependent Pho80-Pho85 activity after 10 mins
T2 sequence (P17442 whole entry): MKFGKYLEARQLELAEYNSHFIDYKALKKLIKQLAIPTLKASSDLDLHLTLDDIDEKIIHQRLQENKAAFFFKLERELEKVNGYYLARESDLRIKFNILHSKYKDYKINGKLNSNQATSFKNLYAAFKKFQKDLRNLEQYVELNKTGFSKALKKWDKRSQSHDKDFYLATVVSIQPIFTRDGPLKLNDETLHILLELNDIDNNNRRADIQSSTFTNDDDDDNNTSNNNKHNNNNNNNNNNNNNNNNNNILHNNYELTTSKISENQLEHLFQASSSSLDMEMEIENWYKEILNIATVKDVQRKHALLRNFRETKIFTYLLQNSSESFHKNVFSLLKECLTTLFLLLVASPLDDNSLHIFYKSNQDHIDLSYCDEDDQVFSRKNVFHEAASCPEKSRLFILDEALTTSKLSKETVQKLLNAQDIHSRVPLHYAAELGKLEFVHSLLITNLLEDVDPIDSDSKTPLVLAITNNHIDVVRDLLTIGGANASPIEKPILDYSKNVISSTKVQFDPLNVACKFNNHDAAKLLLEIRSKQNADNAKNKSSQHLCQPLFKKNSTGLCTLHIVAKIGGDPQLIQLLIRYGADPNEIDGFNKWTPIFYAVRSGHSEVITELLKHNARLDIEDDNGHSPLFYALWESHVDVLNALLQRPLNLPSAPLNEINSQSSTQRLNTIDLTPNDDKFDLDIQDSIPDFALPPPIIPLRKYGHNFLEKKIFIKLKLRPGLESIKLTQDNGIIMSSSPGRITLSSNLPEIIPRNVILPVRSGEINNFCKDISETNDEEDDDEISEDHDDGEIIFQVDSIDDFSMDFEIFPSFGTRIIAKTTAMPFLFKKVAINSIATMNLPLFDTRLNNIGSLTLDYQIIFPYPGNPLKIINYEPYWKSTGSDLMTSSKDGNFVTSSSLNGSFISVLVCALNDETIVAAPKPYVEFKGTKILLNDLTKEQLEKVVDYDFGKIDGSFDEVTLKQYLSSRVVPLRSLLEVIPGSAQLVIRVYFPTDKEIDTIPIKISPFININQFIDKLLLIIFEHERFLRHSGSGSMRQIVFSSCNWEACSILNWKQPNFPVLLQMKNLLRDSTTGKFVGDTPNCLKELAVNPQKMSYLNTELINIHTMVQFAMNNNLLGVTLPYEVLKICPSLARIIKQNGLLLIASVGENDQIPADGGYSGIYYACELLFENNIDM

[4] = target: T2, Phosphate system positive regulatory protein PHO81; test: Inhibition of Saccharomyces cerevisiae Pho81-MD-MD dependent Pho80-Pho85 activity after 60 mins
[5] = target: T1, Pho80/Pho85/Pho81 complex (Saccharomyces cerevisiae S288c); test: Displacement of [32P]-labeled 6-inositol heptakisphosphate from Pho80-Pho85-Pho81-MD complex in Saccharomyces cerevisiae at 400 uM at 4 degC by electrophoretic mobility shift assay; type: protein-complex assay; settings: tested as the 32P-labelled form
[6] = target: T1, Pho80/Pho85/Pho81 complex (Saccharomyces cerevisiae S288c); test: Inhibition of Saccharomyces cerevisiae Pho80-Pho85-Pho81-MD catalyzed phosphorylation of Pho4 P174L distal-site mutant assessed as increase in substrate concentration; type: protein-complex assay
[7] = target: T2, Phosphate system positive regulatory protein PHO81; test: Inhibition of Saccharomyces cerevisiae Pho81-MD-dependent Pho80-Pho85 activity after 30 mins
[8] = target: T1, Pho80/Pho85/Pho81 complex (Saccharomyces cerevisiae S288c); test: Displacement of [32P]-labeled 4-inositol heptakisphosphate from Pho80-Pho85-Pho81-MD complex in Saccharomyces cerevisiae at 400 uM 30 mins at 30 degC by electrophoretic mobility shift assay; type: protein-complex assay; settings: tested as the 32P-labelled form
[9] = target: T1, Pho80/Pho85/Pho81 complex (Saccharomyces cerevisiae S288c); test: Binding affinity to Saccharomyces cerevisiae Pho80-Pho85-Pho81-MD complex at 0.2 uM after 30 mins by electrophoretic mobility shift assay in presence of 6mM CaCl2; type: protein-complex assay; settings: tested as the 32P-labelled form
[10] = target: T3, Pho80/Pho85 (Saccharomyces cerevisiae S288c) (UniProt P17157+P20052); test: Binding affinity of […]-labeled Pho81-MD to Saccharomyces cerevisiae Pho80-Pho85 by fluorescence binding assay relative to untreated control; type: protein-complex assay
[11] = target: T1, Pho80/Pho85/Pho81 complex (Saccharomyces cerevisiae S288c); test: Binding affinity to Saccharomyces cerevisiae Pho80-Pho85-Pho81-MD complex at 0.2 uM after 30 mins at by electrophoretic mobility shift assay; settings: tested as the 32P-labelled form
[12] = target: T1, Pho80/Pho85/Pho81 complex (Saccharomyces cerevisiae S288c); test: Binding affinity to Saccharomyces cerevisiae Pho80-Pho85-Pho81-MD complex at 0.2 uM after 30 mins by electrophoretic mobility shift assay in presence of 6mM MgCl2; type: protein-complex assay; settings: tested as the 32P-labelled form
[13] = target: T3, Pho80/Pho85 (Saccharomyces cerevisiae S288c); test: Inhibition of Saccharomyces cerevisiae Pho80-Pho85 at 100 uM in presence of > 10 uM Pho81-MD; type: protein-complex assay
[14] = target: T1, Pho80/Pho85/Pho81 complex (Saccharomyces cerevisiae S288c); test: Binding affinity to Saccharomyces cerevisiae Pho80-Pho85-Pho81-MD complex at 400 uM after 30 mins at 30 degC by electrophoretic mobility shift assay; type: protein-complex assay
[15] = target: T1, Pho80/Pho85/Pho81 complex (Saccharomyces cerevisiae S288c); test: Inhibition of Saccharomyces cerevisiae Pho80-Pho85-Pho81-MD catalyzed phosphorylation of wild type Pho4 distal-site assessed as increase in substrate concentration; type: protein-complex assay
[16] = target: T1, Pho80/Pho85/Pho81 complex (Saccharomyces cerevisiae S288c); test: Binding affinity to Saccharomyces cerevisiae Pho80-Pho85-Pho81-MD complex at 400 uM after 30 mins at 4 degC by electrophoretic mobility shift assay; type: protein-complex assay
[17] = target: T1, Pho80/Pho85/Pho81 complex (Saccharomyces cerevisiae S288c); test: Inhibition of Saccharomyces cerevisiae Pho80-Pho85-Pho81-MD catalyzed phosphorylation of Pho4 I22T distal-site mutant assessed as increase in substrate concentration; type: protein-complex assay
[18] = target: T3, Pho80/Pho85 (Saccharomyces cerevisiae S288c); test: Binding affinity of Pho81-MD S2-segment to Saccharomyces cerevisiae Pho80-Pho85; type: protein-complex assay
[19] = target: T1, Pho80/Pho85/Pho81 complex (Saccharomyces cerevisiae S288c); test: Binding affinity to Saccharomyces cerevisiae Pho80-Pho85-Pho81-MD complex at 0.2 uM after 30 mins by electrophoretic mobility shift assay in presence of 6 mM ZnSO4; type: protein-complex assay; settings: tested as the 32P-labelled form
[20] = target: T1, Pho80/Pho85/Pho81 complex (Saccharomyces cerevisiae S288c); test: Binding affinity to Saccharomyces cerevisiae Pho80-Pho85-Pho81-MD complex at 0.2 uM after 30 mins by electrophoretic mobility shift assay in presence of 6mM MnCl2; type: protein-complex assay; settings: tested as the 32P-labelled form
[21] = target: T1, Pho80/Pho85/Pho81 complex (Saccharomyces cerevisiae S288c); test: Displacement of [32P]-labeled 6-inositol heptakisphosphate from Pho80-Pho85-Pho81-MD complex in Saccharomyces cerevisiae at 400 uM at 30 degC by electrophoretic mobility shift assay; type: protein-complex assay; settings: tested as the 32P-labelled form
[22] = target: T1, Pho80/Pho85/Pho81 complex (Saccharomyces cerevisiae S288c); test: Inhibition of Saccharomyces cerevisiae Pho80-Pho85-Pho81-MD catalyzed phosphorylation of Pho4 D175V distal-site mutant; type: protein-complex assay
[23] = target: T3, Pho80/Pho85 (Saccharomyces cerevisiae S288c); test: Inhibition of Saccharomyces cerevisiae Pho80-Pho85 at 50 uM in presence of > 10 uM Pho81-MD; type: protein-complex assay
[24] = target: T2, Phosphate system positive regulatory protein PHO81; test: Inhibition of Saccharomyces cerevisiae Pho81-MD-MD dependent Pho80-Pho85 activity after 120 mins
[25] = target: T1, Pho80/Pho85/Pho81 complex (Saccharomyces cerevisiae S288c); test: Displacement of 5-Inositol heptakisphosphate from Pho80-Pho85-Pho81-MD complex in Saccharomyces cerevisiae at 0.2 uM 30 mins by electrophoretic mobility shift assay; type: protein-complex assay
[26] = target: T1, Pho80/Pho85/Pho81 complex (Saccharomyces cerevisiae S288c); test: Displacement of [32P]-labeled 4-inositol heptakisphosphate from Pho80-Pho85-Pho81-MD complex in Saccharomyces cerevisiae at 400 uM 30 mins at 4 degC by electrophoretic mobility shift assay; type: protein-complex assay; settings: tested as the 32P-labelled form
[27] = target: T4, Pho80/Pho85/Pho81 complex (Saccharomyces cerevisiae S288c, UniProt P17157+P17442+P20052); test: Inhibition of Saccharomyces cerevisiae Pho80-Pho85-Pho81-MD catalyzed phosphorylation of Pho4-site 6 peptide; type: protein-complex assay
[28] = target: T4, Pho80/Pho85/Pho81 complex; test: Binding affinity to Saccharomyces cerevisiae Pho80-Pho85-Pho81-MD complex from 2uM to 80 uM after 30 mins by electrophoretic mobility shift assay in presence of 6 mM MgCl2; type: protein-complex assay; settings: read-out: Kd(app)
[29] = target: T3, Pho80/Pho85 (Saccharomyces cerevisiae S288c); test: Binding affinity of Pho81-MD S1-segment to Saccharomyces cerevisiae Pho80-Pho85; type: protein-complex assay
[30] = target: T4, Pho80/Pho85/Pho81 complex; test: Competitive inhibition of Saccharomyces cerevisiae Pho80-Pho85-Pho81-MD catalyzed phosphorylation of Pho4 assessed as increase in substrate concentration by line-weaverberk plot assay; type: protein-complex assay
[31] = target: T1, Pho80/Pho85/Pho81 complex (Saccharomyces cerevisiae S288c); test: Inhibition of Saccharomyces cerevisiae Pho80-Pho85-Pho81-MD catalyzed phosphorylation of Pho4 S176N distal-site mutant assessed as increase in substrate concentration; type: protein-complex assay

T4 sequence (P17157 whole entry, one chain of several): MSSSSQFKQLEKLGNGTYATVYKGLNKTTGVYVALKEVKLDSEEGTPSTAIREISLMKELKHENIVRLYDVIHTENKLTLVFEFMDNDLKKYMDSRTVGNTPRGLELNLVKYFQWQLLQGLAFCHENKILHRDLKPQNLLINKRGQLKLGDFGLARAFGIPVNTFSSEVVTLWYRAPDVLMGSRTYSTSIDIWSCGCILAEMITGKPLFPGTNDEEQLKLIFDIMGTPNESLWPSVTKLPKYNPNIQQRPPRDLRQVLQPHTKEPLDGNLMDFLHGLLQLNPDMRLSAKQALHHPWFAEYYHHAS
T4 sequence (P20052 whole entry, one chain of several): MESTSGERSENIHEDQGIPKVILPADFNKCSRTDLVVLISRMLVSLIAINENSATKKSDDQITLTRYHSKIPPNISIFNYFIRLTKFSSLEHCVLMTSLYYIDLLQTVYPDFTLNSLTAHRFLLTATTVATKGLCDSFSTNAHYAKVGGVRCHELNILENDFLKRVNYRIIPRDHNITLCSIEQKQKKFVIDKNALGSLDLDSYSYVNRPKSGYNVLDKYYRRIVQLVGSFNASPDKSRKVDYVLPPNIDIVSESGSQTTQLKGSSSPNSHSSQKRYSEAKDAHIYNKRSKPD

SMILES: O=P(O)(O)O[C@H]1[C@@H](OP(=O)(O)O)[C@@H](OP(=O)(O)O)[C@H](OP(=O)(O)OP(=O)(O)O)[C@@H](OP(=O)(O)O)[C@@H]1OP(=O)(O)O
- inhibition [1]: Active
- Activity [2]: Active
- IC50 [3]: 23 µM
- IC50 [4]: 31 µM
- Activity [5]: inactive
- inhibition [6]: Active
- IC50 [7]: 14 µM
- Activity [8]: Active
- Activity [9]: inactive
- fold change (FC) [10]: 5
- Activity [11]: inactive
- Activity [12]: Active
- Activity [13]: inactive
- Activity [14]: inactive
- inhibition [15]: Active
- Activity [16]: inactive
- inhibition [17]: Active
- Activity [18]: inactive
- Activity [19]: Active
- Activity [20]: Active
- Activity [21]: Active
- inhibition [22]: Active
- Activity [23]: inactive
- IC50 [24]: 22 µM
- Activity [25]: Active
- Activity [26]: inactive
- IC50 [27]: 25 µM
- Kd [28]: 20.3 µM
- Activity [29]: Active
- Ki [30]: 19 µM
- inhibition [31]: Active

SMILES: O=P(O)(O)O[C@H]1[C@@H](OP(=O)(O)O)[C@H](OP(=O)(O)O)[C@@H](OP(=O)(O)OP(=O)(O)O)[C@H](OP(=O)(O)O)[C@H]1OP(=O)(O)O
- Activity [10]: inactive
